# Key:
# γδ T cell = γδ T cell amplification from human PBMCs, counting γδ T cell using flow cytometry (given as in vivo EC50); format: cell-based; conditions: γδ T cell amplification from human PBMCs, flow cytometry count
# Description: The biological activity of γδ T cell amplification from human PBMCs was assessed by counting γδ T cell using flow cytometry.
# In vitro proliferation assays and in vitro TNFα release assay are performed essentially as described in Example 3.
# Vg9Vd2 cells = test: EC50 of BrHPP for triggering Vg9Vd2 cells; format: cell-based
# Description: In vitro, we and others (Lang, 1995) have shown that the activation of Vg9Vd2 cells occurs within minutes after the addition of the molecule. Two mechanisms may prevent the molecule to be active in vivo i) the likely rapid renal clearance of such a small molecule and ii) a degradation process in vivo. […] Nevertheless, the concentration of the molecule, injected by intravenous route in relatively high amount, should be maintained beyond the 20 nM EC50 for a significant time, if no additional, blood cell or organ related degradation process occurs in vivo.
# γδ T cells = test: Supplementary pharmaco-dynamics studies, consecutive injections of BrHPP in male cynomolgus monkeys; format: in vivo
# Description: We have thus performed other non-GLP pharmaco-dynamics studies in male cynomolgus monkeys in order to further document the features of in vivo γδ T cells response to consecutive injections of BrHPP, varying either the dose or the time-laps between injections.
# In vivo amplification was assessed after 4 successive injections of 20 or 80 mg/kg Phosphostim®, 4 or 8 weeks apart.
# 786-0 cells lines = test: Nod-SCID/tumor model, human PBMC stimulated in vivo with BrHPP; design: species or system Nod-SCID mice
# Description: Preliminary studies to set up the Nod-SCID/tumor and to stimulate human MNC with BrHPP in the Nod-SCID were carried out as follows: • The following renal tumor cells lines purchased from the ATCC (786-0, Kaci1, G401 and G402) were used for the establishment of the model. 786-0 and Kaci-1 cells lines were renal clear cell carcinoma (RCC), G401 rhabdoid and G402 leimyeloblastoma.
# 8-12 weeks Nod-SCID mice were used as recipient of the cells lines.
# Each mouse received, at the left flank's upper part, 2-5×10^6 cells by subcutaneous injection at day D0. The appearance and the growing of the tumors evolution were checked weekly.
# The tumors appearance and development depend on the cell line and on the number of engrafted cells. For example, after the engraftment of 2×10^6 cells, 3 to 4 weeks were needed for the 786-O and Kac1-1, while 2 weeks were needed for the G401 and 402. • At day 0, mice were injected IP 50*10^6 PBMC (collected from healthy donor, etablissement français du sang), then stimulated (IP) 40 mg/kg BrHPP mixed with 1000 IU of IL2. At D5 and each every three days, mice were treated with 500 UI of IL2. Human γδ T cells were developed in the peritoneal cavity of Nod-SCID/human (hu) BrHPP treated mice.
# Taking advantage of the tumoral development in the Nod-SCID mice and the in vivo stimulation of the human γδ T cells, the anti-tumoral effect of the γδ T cells was studied in vivo. The tumoral model was established by engrafting 2×10^6 of 786-0 cells lines, three weeks later, when the volume of the solid tumor reached more than >30 mm3 (calculated with the formula A^2×B/2 where A and B represent respectively the length and breadth of the tumor). Mice, randomized, received IP PBMC and treated for the stimulation with BrHPP. Several groups were constituted:
# A—Negative control group: Mice in the group received only tumoral cell line
# B—PBMC group: Mice were injected IP with 50×10^6 PBMC
# C—Study group: Mice after receiving the 50×10^6 PBMC were treated with BrHPP and
# For each group, parameters were observed as follows: • Weekly check of the tumor size and volume • Weekly phenotype of human T cells in the peritoneal cavity and blood collected cells for the percentage of human γδ T cells versus ab human T cells. • Serological TNF and INF check • At sacrifice: • 1—phenotype study of the homing of human leukocytes cells and their phenotype (IP, liver, lung, spleen, bone morrow, blood, thymus and tumor). • 2—Immunohistochemistry (IHC) study in the tumor of the recipient mice.
substance,measurement,setting,value
3-(bromomethyl)-3-butanol-1-yl-diphosphate [BrHPP],EC50,γδ T cell,~1 nM
same,EC50,Vg9Vd2 cells,20 nM
same,in vivo amplification of γδ cells,"γδ T cells; 4 successive injections of 20 or 80 mg/kg Phosphostim, 4 or 8 weeks apart",repeated increases of γδ cells
same,γδ cell rate and absolute count in the periphery,"γδ T cells; at least 3 successive injections, 8 weeks apart, 20 or 80 mg/kg, males",significant increases
same,γδ cell rate and absolute count,"γδ T cells; at least 4 successive injections, 4 weeks apart, 20 mg/kg, males",detectable increases
same,mice in which the tumor was not totally cleared,786-0 cells lines; PBMC + BrHPP + IL2,4 of 10
same,tumor size,786-0 cells lines; PBMC/BrHPP (40 mg/kg IP) and IL2 treated group,from day 7 onwards the tumor size shrank
same,tumor growth where tumor not totally cleared,786-0 cells lines; after 12 weeks,tumor growth was stopped and the tumor size stayed stable
same,human γδ cells in the tumor,"786-0 cells lines; at sacrifice, 4 weeks",human γδ cells were present only in the BrHPP treated group
same,reappearance of tumor,"786-0 cells lines; mice where the tumor was cleared, 12 weeks after the treatment",no reappearance of new tumor was observed
same,human γδ T cell presence in the peritoneal cavity,786-0 cells lines; weekly IP phenotype,human γδ T cell presence only in the BrHPP treated mice

# Source: patent US20100254940A1, “Compositions and Methods for Regulating an Immune Response in a Subject” (INNATE PHARMA, S.A., priority 2002, published 2010)
